US10266528B2, “2-oxo-imidazopyridines as reversible BTK inhibitors and uses thereof” (Merck Patent GmbH, priority 2016, dated 2019)

How the values were obtained:
[1] = biological target: full-length human BTK (Homo sapiens (Human), UniProt Q06187); assay: Microfluidic off-chip mobility shift kinase assay against BTK enzyme; type: biochemical; settings: 90 min at 27° C.
Method: Example 23. Microfluidic Off-Chip Mobility Shift Assay Protocol for Potency Assessment Against BTK Enzyme
The protocol below describes microfluidic, off-chip mobility shift kinase assay to measure inherent potency of compounds against BTK enzyme.
5 uL of enzyme buffer and 7.5 uL of ATP/kinKDR peptide substrate mix were added to Matrix (#115304) 384-well, sterile, polypropylene plates (Thermo Fisher Scientific, Hudson, N.H.) with 125 nL of serially diluted compounds prepared in 100% DMSO, and incubated for 90 min. at 27° C. Following the incubation period, reactions were stopped by adding 60 uL stop buffer consisting of 100 mM HEPES, pH 7.5, 0.015% Brij-35 (30%), 0.277% Coating Reagent #3 (Caliper Life Sciences, Mountain View, Calif.), 5% DMSO. Stopped reactions were monitored at −2 PSI, −3000 V/−700 V in a LabChip 3000 plate reader from Caliper Life Sciences, a PerkinElmer Company (Hopkinton, Mass.), and the activity was measured by off-chip mobility shift assay measuring the charge/mass difference between substrate and product resulting from peptide phosphorilation. IC50 and efficacy were determined by plotting log [Inhibitor] vs. % Activity in GeneData Screener (Basel, Switzerland).

[2] = system: anti-IgM-induced expression of CD69 in human peripheral blood mononuclear cells (PBMCs); assay: PBMC IC50 assay: anti-IgM-induced CD69 expression on CD19 positive cells; type: cell-based; settings: anti-IgM stimulation, CD69 expression on CD19 positive B cells
Method: Btk is critical for mediating the signalling of B cell antigen receptor (BCR) after anti-IgM stimulation. Based on this principle, a functional cell-based assay was established to determine the potency of compounds at inhibiting anti-IgM-induced expression of CD69, a downstream BCR signaling event, in freshly isolated human peripheral blood mononuclear cells (PBMCs). In the assay, a 90 μl PBMC suspension containing 2.5×10^5 cells was pre-treated with 10 μl of test compound at various concentrations for an hour, and then incubated overnight (approximately 16-18 hours) with 5 μl 420 μg/ml affiniPure F(ab′)2 fragment goat anti-human IgM Fc fragment per well (Dianova, Cat. No.: 109-006-129). After the incubation, the cells were washed and immunostained with an APC-labeled mouse anti-human CD69 (BD Biosciences; clone: FN50), a PerCP-Cy5.5 labelled mouse anti-human CD19 (BD Biosciences; clone: SJ25C1) and a FITC-labelled mouse anti-human CD3 (BD Biosciences; clone: HIT3a), and fixed for flow cytometric analysis of CD69 expression on CD19 positive cells (B cells). The percentage of CD69 expressing CD19 positive cells was plotted against the concentrations of test compounds to obtain a concentration response curve, and calculate an IC50 value as a measure of the potency of test compounds in the assay.

[3] = system: WB; assay: WB IC50 (no method described); type: cell-based

Sequence of full-length human BTK (Q06187 whole entry): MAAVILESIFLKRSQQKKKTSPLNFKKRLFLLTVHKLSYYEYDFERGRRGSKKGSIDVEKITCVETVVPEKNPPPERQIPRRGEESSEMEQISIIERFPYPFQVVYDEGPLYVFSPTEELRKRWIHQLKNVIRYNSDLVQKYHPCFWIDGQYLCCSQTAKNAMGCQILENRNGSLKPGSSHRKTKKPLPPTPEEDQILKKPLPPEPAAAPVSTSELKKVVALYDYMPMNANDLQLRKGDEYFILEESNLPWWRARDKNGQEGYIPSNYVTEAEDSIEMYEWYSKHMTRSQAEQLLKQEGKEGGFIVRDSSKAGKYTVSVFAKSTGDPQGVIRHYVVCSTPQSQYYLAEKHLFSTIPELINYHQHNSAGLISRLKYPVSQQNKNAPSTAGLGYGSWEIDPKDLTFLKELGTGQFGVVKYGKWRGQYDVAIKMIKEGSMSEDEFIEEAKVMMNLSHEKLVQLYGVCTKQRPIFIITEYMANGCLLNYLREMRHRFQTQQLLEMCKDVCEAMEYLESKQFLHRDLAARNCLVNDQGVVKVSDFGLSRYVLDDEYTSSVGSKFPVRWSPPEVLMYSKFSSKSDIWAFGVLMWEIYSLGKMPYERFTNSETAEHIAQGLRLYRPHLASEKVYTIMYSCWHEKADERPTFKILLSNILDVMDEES

IC50 [1]	IC50 [3]	SMILES	IC50 ([2]; Homo sapiens, PBMC)	IC50 [2]
< 10 nM	–	CC(C)(C)c1noc(C(=O)NCc2ccc(-c3ccnc4[nH]c(=O)[nH]c34)cc2C2CC2)n1 [Compound 17, 3-tert-Butyl-[1,2,4]oxadiazole-5-carboxylic Acid 2-cyclopropyl-4-(2-oxo-2,3-dihydro-1H-imidazo[4,5-b]pyridin-7-yl)-benzylamide]	100 to 1000 nM	–
10 to 100 nM	–	CC(C)(C)c1nc(C(=O)NCc2ccc(-c3ccnc4[nH]c(=O)[nH]c34)cc2F)no1 [Compound 3, 5-tert-Butyl-[1,2,4]oxadiazole-3-carboxylic Acid 2-fluoro-4-(2-oxo-2,3-dihydro-1H-imidazo[4,5-b]pyridin-7-yl)-benzylamide]	–	–
< 10 nM	100 to 1000 nM	CC(C)(C)c1noc(C(=O)NCc2ccc(-c3ccnc4[nH]c(=O)[nH]c34)cc2F)n1 [Compound 2, 3-tert-Butyl-[1,2,4]oxadiazole-5-carboxylic Acid 2-fluoro-4-(2-oxo-2,3-dihydro-1H-imidazo[4,5-b]pyridine-7-yl)-benzylamide]	100 to 1000 nM	–
< 10 nM	100 to 1000 nM	CC(C)(C)c1noc(C(=O)NCc2ccc(-c3ccnc4[nH]c(=O)[nH]c34)cc2C(F)(F)F)n1 [Compound 1, 3-tert-Butyl-[1,2,4]oxadiazole-5-carboxylic Acid 4-(2-oxo-2,3-dihydro-1H-imidazo[4,5-b]pyridine-7-yl)-2-trifluoromethyl-benzylamide]	100 to 1000 nM	–
< 10 nM	10 to 100 nM	Cc1cc(-c2ccnc3[nH]c(=O)[nH]c23)ccc1CNC(=O)c1nc(C(C)(C)C)no1 [Compound 23, 3-tert-Butyl-[1,2,4]oxadiazole-5-carboxylic Acid 2-methyl-4-(2-oxo-2,3-dihydro-1H-imidazo[4,5-b]pyridin-7-yl)-benzylamide]	10 to 100 nM	–
< 10 nM	–	Cc1cc(-c2ccnc3[nH]c(=O)[nH]c23)c(F)cc1CNC(=O)c1nc(C(C)(C)C)no1 [Compound 16, 3-tert-Butyl-[1,2,4]oxadiazole-5-carboxylic Acid 5-fluoro-2-methyl-4-(2-oxo-2,3-dihydro-1H-imidazo[4,5-b]pyridin-7-yl)-benzylamide]	100 to 1000 nM	–
< 10 nM	–	CC(C)(C)c1noc(C(=O)NC2CCCCc3cc(-c4ccnc5[nH]c(=O)[nH]c45)ccc32)n1 (centres unmarked) [Compound 12, 3-tert-Butyl-[1,2,4]oxadiazole-5-carboxylic Acid [2-(2-oxo-2,3-dihydro-1H-imidazo[4,5-b]pyridin-7-yl)-6,7,8,9-tetrahydro-5H-benzocyclohepten-5-yl]-amide]	< 10 nM	–
10 to 100 nM	–	CC(C)(C)c1noc(C(=O)NC2CCCCc3cc(-c4ccnc5[nH]c(=O)[nH]c45)ccc32)n1 (single isomer, unassigned) [Compound 13, 3-tert-Butyl-[1,2,4]oxadiazole-5-carboxylic Acid [2-(2-oxo-2,3-dihydro-1H-imidazo[4,5-b]pyridin-7-yl)-6,7,8,9-tetrahydro-5H-benzocyclohepten-5-yl]-amide]	–	–
< 10 nM	–	CC(C)(C)c1noc(C(=O)NC2CCCCc3cc(-c4ccnc5[nH]c(=O)[nH]c45)ccc32)n1 (centres unmarked) [Compound 11, 3-tert-Butyl-[1,2,4]oxadiazole-5-carboxylic Acid [2-(2-oxo-2,3-dihydro-1H-imidazo[4,5-b]pyridin-7-yl)-6,7,8,9-tetrahydro-5H-benzocyclohepten-5-yl]-amide]	–	10 to 100 nM
100 to 1000 nM	–	CC(C)(C)c1nnc(C(=O)NCc2ccc(-c3ccnc4[nH]c(=O)[nH]c34)cc2F)o1 [Compound 7, 5-tert-Butyl-[1,3,4]oxadiazole-2-carboxylic Acid 2-fluoro-4-(2-oxo-2,3-dihydro-1H-imidazo[4,5-b]pyridin-7-yl)-benzylamide]	–	–
10 to 100 nM	–	CC(C)(C)c1noc(C(=O)NC2CCCc3cc(-c4ccnc5[nH]c(=O)[nH]c45)ccc32)n1 (centres unmarked) [Compound 15, 3-tert-Butyl-[1,2,4]oxadiazole-5-carboxylic Acid [6-(2-oxo-2,3-dihydro-1H-imidazo[4,5-b]pyridin-7-yl)-1,2,3,4-tetrahydro-naphthalen-1-yl]-amide]	–	–
> 1000 nM	–	CC(C)(C)c1noc(C(=O)NCc2ccc(-c3ccnc4[nH]c(=O)[nH]c34)c(CO)c2)n1 [Compound 10, 3-tert-Butyl-[1,2,4]oxadiazole-5-carboxylic Acid 3-hydroxymethyl-4-(2-oxo-2,3-dihydro-1H-imidazo[4,5-b]pyridin-7-yl)-benzylamide]	–	–

The remaining lines, values behind:

SMILES	IC50 [1]	IC50 [3]	IC50 ([2]; Homo sapiens, PBMC)	IC50 [2]
CC1(C)Cc2cc3n(c2C1)CCN(c1cc(F)cc(-c2ccnc4[nH]c(=O)[nH]c24)c1CO)C3=O [Compound 21, 2-[5-Fluoro-2-hydroxymethyl-3-(2-oxo-2,3-dihydro-1H-imidazo[4,5-b]pyridin-7-yl)-phenyl]-7,7-dimethyl-3,4,7,8-tetrahydro-2H,6H-cyclopenta[4,5]pyrrolo[1,2-a]pyrazin-1-one]	< 10 nM	–	–	–
CC(C)(C)C1CCN(C(=O)NCc2ccc(-c3ccnc4[nH]c(=O)[nH]c34)cc2F)C1 (centres unmarked) [Compound 5, 3-tert-Butyl-pyrrolidine-1-carboxylic Acid 2-fluoro-4-(2-oxo-2,3-dihydro-1H-imidazo[4,5-b]pyridin-7-yl)-benzylamide]	10 to 100 nM	–	–	–
CC(C)(C)c1cc(C(=O)NC2CCCCc3cc(-c4ccnc5[nH]c(=O)[nH]c45)ccc32)on1 (centres unmarked) [Compound 14, Butyl-isoxazole-5-carboxylic Acid [2-(2-oxo-2,3-dihydro-1H-imidazo[4,5-b]pyridin-7-yl)-6,7,8,9-tetrahydro-5H-benzocyclohepten-5-yl]-amide]	–	–	100 to 1000 nM	–
CC(C)(C)c1ccc(C(=O)NCc2ccc(-c3ccnc4[nH]c(=O)[nH]c34)cc2F)cn1 [Compound 8, 6-tert-Butyl-N-[2-fluoro-4-(2-oxo-2,3-dihydro-1H-imidazo[4,5-b]pyridin-7-yl)-benzyl]-nicotinamide]	> 1000 nM	–	–	–
CC(C)(C)c1nc(C(=O)NCc2ccc(-c3ccnc4[nH]c(=O)[nH]c34)cc2F)cs1 [Compound 6, 2-tert-Butyl-thiazole-4-carboxylic Acid 2-fluoro-4-(2-oxo-2,3-dihydro-1H-imidazo[4,5-b]pyridin-7-yl)-benzylamide]	10 to 100 nM	–	–	–
CC1(c2noc(C(=O)NCc3ccc(-c4ccnc5[nH]c(=O)[nH]c45)cc3C(F)(F)F)n2)CC1 [Compound 18, 3-(1-Methyl-cyclopropyl)-[1,2,4]oxadiazole-5-carboxylic Acid 4-(2-oxo-2,3-dihydro-1H-imidazo[4,5-b]pyridin-7-yl)-2-trifluoromethyl-benzylamide]	< 10 nM	100 to 1000 nM	10 to 100 nM	–
CC(C)(O)c1ccc(C(=O)NCc2ccc(-c3ccnc4[nH]c(=O)[nH]c34)cc2F)cc1 [Compound 9, N-[2-Fluoro-4-(2-oxo-2,3-dihydro-1H-imidazo[4,5-b]pyridin-7-yl)-benzyl]-4-(1-hydroxy-1-methyl-ethyl)-benzamide]	> 1000 nM	–	–	–
CC1(C)Cc2cc3n(c2C1)CCN(c1cc(F)cc(-c2ccnc4[nH]c(=O)[nH]c24)c1)C3=O [Compound 22, 2-[3-Fluoro-5-(2-oxo-2,3-dihydro-1H-imidazo[4,5-b]pyridin-7-yl)-phenyl]-7,7-dimethyl-3,4,7,8-tetrahydro-2H,6H-cyclopenta[4,5]pyrrolo[1,2-a]pyrazin-1-one]	10 to 100 nM	–	–	–
CC(C)(C)c1nc(C(=O)NCc2ccc(-c3ccnc4[nH]c(=O)[nH]c34)cc2C(F)(F)F)no1 [Compound 19, 5-tert-Butyl-[1,2,4]oxadiazole-3-carboxylic Acid 4-(2-oxo-2,3-dihydro-1H-imidazo[4,5-b]pyridin-7-yl)-2-trifluoromethyl-benzylamide]	< 10 nM	–	–	–
O=C(NCc1ccc(-c2ccnc3[nH]c(=O)[nH]c23)cc1F)NCC1CC2CCC1C2 (centres unmarked) [Compound 4, 1-Bicyclo[2.2.1]hept-2-ylmethyl-3-[2-fluoro-4-(2-oxo-2,3-dihydro-1H-imidazo[4,5-b]pyridin-7-yl)-benzyl]-urea]	10 to 100 nM	–	> 1000 nM	–
